1 compound from US20080268451A1, “MEASUREMENT OF AN INSOLUBLE ANALYTE IN A SAMPLE” (priority 2007, published 2008) can be followed below.

For one series, the system named is Cyp2A337. The settings on record: canine hepatocytes, 0-10 μM rifampicin, qNPA.
For the next series, the system named is Cyp2D15. Briefly: qNPA gene expression, rifampicin-treated canine hepatocytes. The settings on record: 0-10 μM rifampicin. Type of series: cell-based.
A further series relates to Cyp2D6. Briefly: qNPA gene expression, rifampicin-treated human primary liver cells. The settings on record: 0-10 μM rifampicin.
For the next series, the system named is Cyp1A1. Nature of the series: qNPA gene expression, rifampicin-treated canine hepatocytes. Format: cell-based. The settings on record: 0-10 μM rifampicin.
The next series concerns Cyp2B6. Briefly: qNPA gene expression, rifampicin-treated human primary liver cells. The note with it: 0-10 μM rifampicin.

As for `CO[C@H]1/C=C/O[C@@]2(C)Oc3c(C)c(O)c4c(O)c(c(/C=N/N5CCN(C)CC5)c(O)c4c3C2=O)NC(=O)/C(C)=C\C=C\[C@H](C)[C@H](O)[C@@H](C)[C@@H](O)[C@@H](C)[C@H](OC(C)=O)[C@@H]1C` [rifampicin], the Cyp2A337 gene expression entry in the series with Cyp2A337 is given as “upregualted”. In the series with Cyp2D15, the Cyp2D15 gene expression entry is “upregualted”. For the same compound, the Cyp2D6 transcript level result in the series with Cyp2D6 (qNPA) is “suppressed”. Moreover, the “suppression of Cyp2D6” value in the series with Cyp2D6 (qNPA (Panel a of FIG. 27)) is on record as “less than 50%”. In the series with Cyp1A1, the Cyp1A1 gene expression result is reported as “upregualted”. Further, the “Cyp2B6 transcript level (enzyme induction)” value with Cyp2B6 is “induced”.
